Measurements taken from publication PMC6910946, “Multiple roles of Bet v 1 ligands in allergen stabilization and modulation of endosomal protease activity” (Allergy, 2019).
Where two headings read alike, the source gives them in different places.

Columns and labels:
Bet_v_1 = target: T1, Bet_v_1 (Betula pendula, UniProt P15494); test: Surface acoustic wave (SAW) interaction studies, determination of Kd; assay type: binding
T1 construct: made in house
T1 sequence (P15494 1-160): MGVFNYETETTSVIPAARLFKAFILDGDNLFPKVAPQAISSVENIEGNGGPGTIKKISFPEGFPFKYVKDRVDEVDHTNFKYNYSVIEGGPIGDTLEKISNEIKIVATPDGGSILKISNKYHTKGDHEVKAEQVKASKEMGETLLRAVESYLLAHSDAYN
Source text: Surface acoustic wave (SAW) technology and NMR spectroscopy were used to observe the interaction of Bet_v_1 with the selected compounds, including determination of the dissociation constant (K d). The influence of ligand binding on the secondary structure elements and the thermal stability of Bet_v_1 was monitored using circular dichroism (CD, JASCO J‐815 spectropolarimeter, Jasco) and Fourier transform infrared (FTIR) spectroscopy (Tensor II FTIR system, Bruker Optics Inc). A detailed description of these methods is available (Appendix [Link], [Link]).
To assess the interactions between Bet_v_1 and Q3OS, DOC, PPE1, LTA, or LPS, we determined the dissociation constants (K d) using SAW binding assays (Table 1, Figure S1), a more quantitative approach than previously described qualitative assays.11, 25 In addition, the LPS‐substructure Kdo2‐Lipid A (Kdo2) was used for binding studies, due to its more homogenous structure but similar immune stimulatory activity when compared to native LPS.
For the determination of the affinity constant Kd, we used surface acoustic wave (SAW) technology. The interaction of the six ligands with Bet v 1 was investigated using a sam® 5BLUE biosensor instrument (Nanotemper, Munich, Germany). Bet v 1 was immobilized in PBS on the surface of a SAW CM-Dextran 3D sensor chip. […] For calculating the affinity constant Kd, different concentrations of the ligands dissolved in a 5 mM sodium phosphate buffer, pH 7.4, were applied to the Bet v 1-coupled chip. Depending on the ligand, the concentration range of the injected ligand varied between 5 µM and 500 µM. For the removal of residual ligand between the sample injections, the chip was washed with regeneration buffer (10 mM citric acid buffer, pH 2.8). The recorded SAW phase changes were analyzed using the software TraceDrawer 1.7 (Ridgeview Instruments, Uppsala, Sweden). The affinity constant Kd was calculated by kinetic evaluation and affinity/EC50 estimation. For kinetic evaluation, an OneToOne curve fit was chosen to match the raw data. Experiments were performed with two coated chips in duplicate, and the coupling efficiency was evaluated using a mouse monoclonal anti-Bet v 1 antibody.

[1] = test system: rat basophil (RBL‐2H3) cells transfected with the human high‐affinity IgE receptor (FcεRI); test: Mediator release assay (IgE cross-linking, basophil degranulation); assay type: cell-based; conditions: sera of six birch pollen allergic subjects
Experimental: The ability of ligand‐loaded Bet_v_1 to induce IgE‐antigen cross‐linking and basophil degranulation was assessed by mediator‐release assays using rat basophil (RBL‐2H3) cells, transfected with the human high‐affinity IgE receptor (FcεRI), as previously described.2, 24 In vitro uptake of labeled Bet_v_1 was performed using CD11c^+ murine bone marrow–derived dendritic cells (BMDCs). The maturation of human monocyte‐derived dendritic cells (moDCs) was analyzed as previously described.2 T‐cell proliferation assays using CD4^+ T‐cell hybridomas were performed as previously described.17 A detailed description of the in vitro assays is available (Appendix [Link], [Link]).
A mediator-release assay was performed to assess the capacity of ligand-loaded Bet v 1 to induce IgE-antigen-crosslinking and basophil degranulation. In this respect, rat basophil (RBL-2H3) cells, transfected with the human high-affinity IgE receptor (FcεRI) were passively sensitized with sera of six subjects allergic to birch pollen (1:10), and used as previously described.^4 For cell-stimulation, Bet v 1 was used at 10-fold dilutions from 1 µg/ml to 0.01 pg/ml. Toxicity of ligands on RBL-2H3 was determined by cell viability assay using MTT (3-(4,5-Dimethylthiazol-2-yl)-2,5-Diphenyltetrazolium Bromide) from Sigma-Aldrich, Inc. (St. Louis, MO, USA). Results were expressed as percentage of total enzyme release of cells lysed with Triton X-100, and the half maximal release (in ng) was determined. Statistics were calculated with a repeated ANOVA followed by a Dunnett post-hoc test of logarithmically transformed half maximal release values (not significant, ns P > 0.05, *P < 0.05, **P < 0.01, and ***P < 0.001).

[2] = target: T2, Bet_v_1 (endolysosomal proteases of microsomes) (Betula pendula, UniProt P15494); test: In vitro simulation of endolysosomal degradation of Bet v 1 with microsomes; assay type: biochemical; conditions: for accumulation of N‐terminal cluster peptides during Bet v 1 processing / generation of the immunodominant T‐cell epitope (number of identified peptides): 12 h degradation; for proteolytic stability of Bet v 1 toward endolysosomal proteases: ligand in 10× molar excess, 0-48 h, densitometric analysis of SDS‐PAGE
T2 construct: made in house
T2 sequence (P15494 1-160): T1 sequence (P15494 1-160)
Experimental: The endolysosomal degradation assay was performed with ligand‐bound (either DOC, PPE1, or Q3OS in 10× molar excess) and Bet_v_1 without ligands (apo‐Bet_v_1) as previously described.21 Recombinant human cathepsin S and human legumain were used in proteolytic degradation assays. Experimental details are described in the Appendix [Link], [Link].
The endolysosomal degradation assay was performed with ligand-bound (either DOC, PPE1, or Q3OS in 10× molar excess) and Bet v 1 without ligands (apo-Bet v 1) as previously described.^7 The protein (5 µg) was incubated with 7 µg of microsomes in 100 mM citrate buffer pH 4.8 and 2 mM dithiothreitol (DTT) for 0, 0.5, 1, 3, 6, 12, 24, and 48 h at 37°C. The different digestion preparations were analyzed by SDS-PAGE and quantitatively interpreted using Image Lab 4.0.1 Software (Bio-Rad). The generated peptides obtained after 12 h of digestion were analyzed using mass spectrometry with a Q-Exactive Orbitrap Mass Spectrometer (Thermo Fisher Scientific, Waltham, MA, USA), nanoelectrospray, and nano-HPLC (Dionex Ultimate 3000, Thermo Fisher Scientific).
For data analysis, the web-based application MSTools was used.^8 For the semi-quantitative analysis of the abundance of the generated peptides at 12 hours of degradation, the obtained peptide sequences were clustered into 7 groups according to their amino acid sequence (cluster 1, GVF-NYE-TET-TSV-IPA-ARL-FKA-F; cluster 2, AIL-DGD-NLF-PKV-APQ-A; cluster 3, AIS-SVE-NIE-GNG-GPG-TIK-KIS-FPE-G; cluster 4, FPF-KYV-KDR-VDE-VDH-TNF-K; cluster 5, YNY-SVI-EGG-PIG-DTL-EKI-SNE-IKI-VAT-PDG-GSI-LK; cluster 6, ISN-KYH-TKG-DHE-VKA-EQV-KAS-KEM-GET-LLR; and cluster 7, RAV-ESY-LLA-HSD-AYN), and the total sum of peak areas of all sequences per cluster was calculated (in percentage).

[3] = Bet v 1 immobilized on chip, ligands in 5 mM sodium phosphate buffer pH 7.4, read-out: Binding affinity K d (SAW)
[4] = 12 h incubation, mass spectrometry

CCC1C(=O)CC(O)C1/C=C/C(O)CCCCCCCC(=O)O (stereo not drawn) [PPE1, E1 phytoprostanes]
Kd (Bet_v_1; [3]): 500 nM
IgE cross‐linking by Bet v 1‐complexes (RBL assay) [1]: None of the above described readouts was influenced
accumulation of N‐terminal cluster peptides during Bet v 1 processing [2]: preferentially accumulated the two N‐terminal cluster peptides
Bet v 1 peptide diversity reduced to (versus apo form) [2, 4]: 53.9%
proteolytic stability of Bet v 1 toward endolysosomal proteases [2]: enhanced proteolytic stability

C[C@H](CCC(=O)O)[C@H]1CC[C@H]2[C@@H]3CC[C@@H]4C[C@H](O)CC[C@]4(C)[C@H]3C[C@H](O)[C@]12C [DOC, sodium deoxycholate, reference compound]
Kd (Bet_v_1; Binding affinity K d (SAW)): 58800 nM
Kd (Bet_v_1; Kd (SAW, Fig. S1)): 58800 nM
IgE cross‐linking by Bet v 1‐complexes (RBL assay) [1]: None of the above described readouts was influenced
accumulation of N‐terminal cluster peptides during Bet v 1 processing [2]: preferentially accumulated the two N‐terminal cluster peptides
generation of the immunodominant T‐cell epitope (number of identified peptides) [2]: more efficient generation of the immunodominant T‐cell epitope
Bet v 1 peptide diversity reduced to (versus apo form) [2, 4]: 69.7%
proteolytic stability of Bet v 1 toward endolysosomal proteases [2]: enhanced proteolytic stability

O=c1c(O[C@@H]2O[C@H](CO)[C@@H](O)[C@H](O)[C@H]2O[C@@H]2O[C@H](CO)[C@@H](O)[C@H](O)[C@H]2O)c(-c2ccc(O)c(O)c2)oc2cc(O)cc(O)c12 [Q3OS, quercetin 3‐O‐sophoroside]
Kd (Bet_v_1; [3]): 1500 nM
Kd (Bet_v_1; Fig. S1 sensorgrams, read-out: Kd (SAW, Fig. S1)): 1470 nM
IgE cross‐linking by Bet v 1‐complexes (RBL assay) [1]: None of the above described readouts was influenced
generation of the immunodominant T‐cell epitope (number of identified peptides) [2]: more efficient generation of the immunodominant T‐cell epitope
diversity of peptides versus apo form of Bet v 1 [2, 4]: 2 fold
proteolytic stability of Bet v 1 toward endolysosomal proteases [2]: only a weakly stabilizing effect over the first 12 hours
